Assays:
[1] = molecular target: T1, ATP-dependent RNA helicase DDX1 (Homo sapiens, UniProt Q92499); experiment: Inhibition of human recombinant DDX1 helicase activity expressed in Escherichia coli assessed as conversion of a 6-FAM-labeled double stranded RNA in to single stranded nucleic acid by laser scanning densitometric analysis
T1 sequence (Q92499 whole entry): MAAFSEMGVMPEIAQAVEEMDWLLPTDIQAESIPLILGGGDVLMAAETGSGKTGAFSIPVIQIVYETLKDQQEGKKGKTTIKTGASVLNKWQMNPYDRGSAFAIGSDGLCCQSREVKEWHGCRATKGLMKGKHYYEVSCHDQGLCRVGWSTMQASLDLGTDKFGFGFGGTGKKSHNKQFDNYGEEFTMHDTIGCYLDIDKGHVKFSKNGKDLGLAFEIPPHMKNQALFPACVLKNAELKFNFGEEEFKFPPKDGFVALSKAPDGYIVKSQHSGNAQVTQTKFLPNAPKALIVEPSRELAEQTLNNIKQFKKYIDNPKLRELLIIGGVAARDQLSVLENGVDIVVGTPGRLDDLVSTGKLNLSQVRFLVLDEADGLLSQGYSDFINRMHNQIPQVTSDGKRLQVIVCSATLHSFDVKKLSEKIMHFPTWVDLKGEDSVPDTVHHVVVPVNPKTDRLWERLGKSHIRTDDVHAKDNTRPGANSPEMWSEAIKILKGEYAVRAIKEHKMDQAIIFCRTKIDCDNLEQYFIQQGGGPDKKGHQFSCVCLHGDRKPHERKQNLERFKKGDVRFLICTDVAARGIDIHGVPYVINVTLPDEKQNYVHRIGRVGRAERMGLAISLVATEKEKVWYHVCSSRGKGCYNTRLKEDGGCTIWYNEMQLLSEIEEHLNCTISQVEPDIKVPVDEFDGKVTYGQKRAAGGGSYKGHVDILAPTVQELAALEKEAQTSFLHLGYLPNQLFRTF

[2] = Inhibition of Hepatitis C virus NS3 helicase expressed in Escherichia coli assessed as conversion of a 6-FAM-labeled double stranded RNA in to single stranded nucleic acid by laser scanning densitometric analysis; parameters: species or system Hepacivirus hominis
[3] = molecular target: T2, ATP-dependent RNA helicase DDX3X (Homo sapiens, UniProt O00571); experiment: Inhibition of human recombinant DDX3 ATPase activity expressed in Escherichia coli assessed as [gamma-32P] ATP hydrolysis after 5 mins by densitometric analysis
Target sequence in this assay (O00571 whole entry): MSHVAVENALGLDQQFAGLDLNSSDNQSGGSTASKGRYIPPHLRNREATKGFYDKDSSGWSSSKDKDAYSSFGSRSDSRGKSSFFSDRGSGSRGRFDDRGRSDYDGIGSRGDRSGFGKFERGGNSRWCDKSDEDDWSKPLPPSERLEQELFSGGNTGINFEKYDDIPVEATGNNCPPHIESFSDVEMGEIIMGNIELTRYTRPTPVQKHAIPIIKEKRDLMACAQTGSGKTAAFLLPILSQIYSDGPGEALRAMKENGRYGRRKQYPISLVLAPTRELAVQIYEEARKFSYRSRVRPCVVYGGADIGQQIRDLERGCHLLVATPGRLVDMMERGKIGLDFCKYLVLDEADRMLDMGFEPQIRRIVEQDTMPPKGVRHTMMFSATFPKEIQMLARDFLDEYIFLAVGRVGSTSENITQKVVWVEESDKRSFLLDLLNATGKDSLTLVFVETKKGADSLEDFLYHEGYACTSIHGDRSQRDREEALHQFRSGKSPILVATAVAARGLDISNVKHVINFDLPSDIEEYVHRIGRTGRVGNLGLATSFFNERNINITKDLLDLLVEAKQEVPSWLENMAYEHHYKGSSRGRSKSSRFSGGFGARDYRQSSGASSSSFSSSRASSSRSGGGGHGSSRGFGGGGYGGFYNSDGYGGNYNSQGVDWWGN

[4] = molecular target: T2, ATP-dependent RNA helicase DDX3X; experiment: Inhibition of human recombinant DDX3 helicase activity expressed in Escherichia coli assessed as conversion of a 6-FAM-labeled double stranded RNA in to single stranded nucleic acid by laser scanning densitometric analysis
Target sequence in this assay (O00571 whole entry): as above

[5] = tested on: Human immunodeficiency virus 1; experiment: Antiviral activity against multidrug-resistant HIV1 infected in phytohemagglutininin-P stimulated human PBMC cells assessed as inhibition of viral replication after 72 hrs post infection; format: functional, organism-based; conditions: Human immunodeficiency virus 1, PBMC
[6] = Cytotoxicity against human PBMC cells assessed as cell viability after 72 hrs by MTS assay; format: cell-based
[7] = Selectivity ratio of CC50 for human PBMC cells to EC50 for multidrug-resistant HIV1 infected in phytohemagglutininin-P-stimulated human PBMC cells; format: ADME, cell-based; conditions: read-out: Ratio CC50/EC50
[8] = molecular target: T2, ATP-dependent RNA helicase DDX3X
Target sequence in this assay (O00571 2-662 limits assumed): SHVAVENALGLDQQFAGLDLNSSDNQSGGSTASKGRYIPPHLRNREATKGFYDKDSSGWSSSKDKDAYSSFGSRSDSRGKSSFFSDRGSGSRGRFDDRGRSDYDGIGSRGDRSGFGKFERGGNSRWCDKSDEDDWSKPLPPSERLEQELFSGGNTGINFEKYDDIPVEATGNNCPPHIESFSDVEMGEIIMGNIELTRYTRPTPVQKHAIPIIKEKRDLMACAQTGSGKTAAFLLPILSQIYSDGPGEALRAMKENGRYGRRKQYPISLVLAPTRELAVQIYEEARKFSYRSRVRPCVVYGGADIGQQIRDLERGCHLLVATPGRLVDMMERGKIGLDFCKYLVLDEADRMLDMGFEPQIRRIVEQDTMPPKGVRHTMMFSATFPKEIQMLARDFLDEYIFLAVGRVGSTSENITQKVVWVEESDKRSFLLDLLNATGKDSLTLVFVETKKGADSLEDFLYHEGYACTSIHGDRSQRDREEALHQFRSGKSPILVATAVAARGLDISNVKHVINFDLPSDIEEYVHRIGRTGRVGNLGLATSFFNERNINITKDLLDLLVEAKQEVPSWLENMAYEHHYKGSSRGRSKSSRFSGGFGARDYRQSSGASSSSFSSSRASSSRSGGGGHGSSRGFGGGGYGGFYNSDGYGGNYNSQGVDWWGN
Description: Competitive inhibition of human recombinant DDX3 expressed in Escherichia coli using 25 nM double strand 18/36mer RNA substrate by PAGE analysis

[9] = molecular target: T2, ATP-dependent RNA helicase DDX3X; remark: listed apart in the source
Target sequence in this assay (O00571 2-662 limits assumed): as above
Description: Competitive inhibition of human recombinant DDX3 expressed in Escherichia coli using 50 nM double strand 18/36mer RNA substrate by PAGE analysis

[10] = molecular target: T2, ATP-dependent RNA helicase DDX3X; remark: listed apart in the source
Target sequence in this assay (O00571 2-662 limits assumed): as above
Description: Competitive inhibition of human recombinant DDX3 expressed in Escherichia coli using 100 nM double strand 18/36mer RNA substrate by PAGE analysis

| IC50 [1] [µM] | IC50 [2] [µM] | IC50 [3] [µM] | IC50 [4] [µM] | Structure (SMILES) | EC50 [5] [µM] | CC50 at 72 h [6] [µM] | selectivity ratio [7] | ID50 [8] [µM] | ID50 [9] [µM] | ID50 [10] [µM] |
| --- | --- | --- | --- | --- | --- | --- | --- | --- | --- | --- |
| > 500 | > 500 | > 1000 | – | Nc1cccc(NC(=O)Nc2cccc(N)c2)c1 | – | – | – | – | – | – |
| > 500 | > 500 | > 1000 | 6 | Cc1[nH]c2ccccc2c1C1=CC(c2ccccc2)=NN=C(c2ccccc2)C1 | – | – | – | – | – | – |
| > 500 | > 500 | > 1000 | 42 | O=C(Nc1ccc(-c2nc3ccccc3[nH]2)cc1)c1cc2ccccc2o1 | – | – | – | – | – | – |
| > 500 | > 500 | 17 | 65 | Cc1ccccc1NC(=O)Nc1cccc(NC(=O)Nc2ccccc2C)c1 | – | – | – | – | – | – |

| Structure (SMILES) | IC50 [1] [µM] | IC50 [2] [µM] | IC50 [3] [µM] | IC50 [4] [µM] | EC50 [5] [µM] | CC50 at 72 h [6] [µM] | selectivity ratio [7] | ID50 [8] [µM] | ID50 [9] [µM] | ID50 [10] [µM] |
| --- | --- | --- | --- | --- | --- | --- | --- | --- | --- | --- |
| O=C(Nc1cccc([N+](=O)[O-])c1)Nc1cccc([N+](=O)[O-])c1 | > 500 | > 500 | > 1000 | – | – | – | – | – | – | – |
| Cc1ccccc1NC(=O)Nc1cccc([N+](=O)[O-])c1 | > 500 | > 500 | 20 | – | 10 | 100 | 10 | – | – | – |
| Cc1ccccc1NC(=O)Nc1cccc(N)c1 | > 500 | > 500 | 40 | 5 | 15 | 100 | 10 | 4.5 | 435 | 950 |

From ChEMBL document CHEMBL2010683, “Discovery of the first small molecule inhibitor of human DDX3 specifically designed to target the RNA binding site: towards the next generation HIV-1 inhibitors” (Bioorg Med Chem Lett, 2012)
